Where “and” joins values, the source holds several entries; their conditions need not be identical. Identical values can stand only once. Marks after values point to notes of the source that are not given here.
How the values were obtained:
[1] = tested on: cerebral ischemic injury in rats caused by autologous thrombus and thrombin; test: Ischemic brain injury in rats caused by autologous thrombus and thrombin (Example 6); assay type: in vivo, rat
Protocol: The drug was administered once by slow tail vein injection (1 ml per minute) 2 h after modeling, and the decrease in blood flow was monitored after the injection of thrombin, and 120 min after the administration of the drug. Neurobehavioral scoring was performed to determine the neurological function of rats after 24 h. The cerebral infarction rate and cerebral water content of rats were determined using 2,3,5-triphenyltetrazolium chloride (TTC) staining method, and the pathological damage of the brain of rats administered with drug 2 h after cerebral ischemia was observed by hematoxylin-eosin (HE) staining.

[2] = tested on: tryptase; test: Sensitization risk: tryptase expression (OD, BAPNA) in zebrafish (Example 2); assay type: in vivo; conditions: for Sensitization risk, in words: 500 ng/tail; for Relative sensitization risk (compared with positive control group) / Sensitization risk (%) / Absorbance value (OD value), parallel wells 1-6 / Absorbance value (OD value), mean: 500 ng/tail intravenous; for Absorbance value (OD value), parallel wells 1-6: 28° C. 1 day, single wells; for Absorbance value (OD value), mean: mean of 6 wells
Protocol: Experimental method: 2 dpf wild type AB strain zebrafish were randomly selected and placed in a 24-well plate, with each group 6 parallel wells and 10 zebrafish per well. The zebrafish were injected intravenously with samples at a dose of 500 ng/tail and the positive control “C48/80” at a concentration of 1.5 μg/mL, while normal control group was set up. Each well has a capacity of 1 mL.
All experimental groups were given BAPNA by dissolving it in the water. After treatment at 28° C. for 1 day, the liquid was transferred to 96-well plates with 200 μL/well, and the relative absorbance values (OD values) of the expression levels of tryptase in each experimental group were detected using an microplate reader, and the results of the statistical analysis of the OD values were used to evaluate the risk of sensitization by sample. Statistical results were expressed as mean±SE.
Statistical analysis was performed using SPSS software, and p<0.05 indicates significant differences.

[3] = tested on: vascular endothelial injury induced thrombosis model in zebrafish; test: Preventative effect on vascular endothelial injury induced thrombosis, ponatinib zebrafish model (Example 1); assay type: in vivo; conditions: 4.00 ng/tail injected
Protocol: Experimental method: 420 tails of 5 dpf wild type AB strain zebrafish were randomly selected and placed in a six-well plate, with 30 fish per well (experimental group). The fish were injected with compound (1), compound (2), compound (3), compound (4), compound (5), compound (6), compound (7), compound (8), compound (9), compound (10), and compound (11) (structural formula shown in Table 1) at a dose of 4.00 ng/tail, with positive control drug acetylsalicylic acid being administered by dissolving it in water at a concentration of 30.0 µg/mL. Normal control group (i.e. zebrafish treated with standard diluted water) and model control group were set up, with a capacity of 3 mL per well (experimental group). Except for normal control group, the remaining experimental groups were all given Punatinib by dissolving it in water to induce vascular endothelial injury induced thrombosis model in zebrafish. The zebrafish were stained with o-dianisidine after co-treatment with ponatinib and samples for a period of time under incubation conditions at 28° C.
After staining, 10 zebrafish in each group were randomly selected and photographed under the microscope, and the intensity of cardiac erythrocyte staining in zebrafish was analyzed using NIS-Elements D 3.20 advanced image-processing software, and the samples were evaluated for the preventative effect on vascular endothelial injury induced thrombosis by the statistical results of cardiac erythrocyte staining intensity.
The preventative effect on thrombosis is calculated as follows: […]
Statistical analysis was performed using SPSS software, and p<0.05 indicates significant differences

[4] = tested on: Erastin-induced neuronal cells; test: Cell viability (CCK8) of Erastin-induced neuronal cells (Example 8); assay type: cell-based, rat; conditions: Erastin 50 μM
Protocol: (§1) Experimental method: Primary neuron cells were incubated in a medium containing Erastin (final concentration of 50 μM) for 24 hours, and then incubated in a medium containing different concentrations of the test drug and Erastin (final concentration of 50 μM) for another 24 hours. After incubation, Real time PCR was used to detect mRNA expression of GPX4 in each group of cells, CCK8 assay was used to detect cell viability in each group of cells, C11-BODIPY probe method was used to detect intracellular lipid ROS levels in each group of cells, and PGSK probe method was used to detect iron content in cells.
(§2) The experimental data were expressed in means±SD, and statistical differences between groups were determined using one-way ANOVA and Tukey's test, with p-values less than 0.05 considered significant.
After incubation, the CCK8 experiment was used to detect the cell viability of each group of cells. The results were presented as Mean±SD. Compared with control group, ***p<0.0001. Compared with model control group, ^#P<0.05, ^##P<0.01.

[5] = tested on: GPX4 mRNA; test: GPX4 mRNA expression (real time PCR) in Erastin-induced neuronal cells (Example 8); assay type: cell-based, rat; conditions: Erastin 50 μM
Protocol: as §1, §2
After incubation, real time PCR was used to detect the mRNA expression of GPX4 in each group of cells. The results were presented as Mean±SD. Compared with the control group, ***p<0.0001; Compared with the model group, #p<0.05, […].

[6] = tested on: vascular inflammation in high-glucose and high-fat zebrafish; test: Regressive effect on vascular inflammation in high-glucose and high-fat zebrafish (Example 9); assay type: in vivo
Protocol: Experimental method: 360 tails of 5 dpf macrophage fluorescent zebrafish were randomly selected and placed in beakers with 30 tails in each beaker, compound (1), compound (3), and compound (5) were given intravenously, and the positive control group was given atorvastatin calcium by dissolving it in water at a concentration of 30 μg/mL, while the normal control group (fish farming water-treated zebrafish) and the model control group were set up, and the volume of each beaker (experimental group) was 25 mL. Except for the normal control group, all other groups were given high-lipids and high-sucrose feed by dissolving it in water. Compound (1), compound (3) and compound (5) group were co-treated with high-lipids and high-sucrose feed for 30 h. The treatment was carried out up to 9 dpf, and 10 zebrafish were randomly selected from each experimental group to collect the intensity of the macrophage fluorescence within the tail vein and around the tail vein of the zebrafish under fluorescence microscope, and the results of the statistical analysis were used to evaluate the regressive effect of compound (1), compound (3), compound (5) on zebrafish vascular inflammation in the high sugar and high fat model.

[7] = tested on: iron content in Erastin-induced neuronal cells; test: Iron content (PGSK probe) in Erastin-induced neuronal cells (Example 8); assay type: cell-based, rat; conditions: Erastin 50 μM
Protocol: as §1, §2
After incubation, the PGSK probe method was used to detect the intracellular iron content. The results were presented as Mean±SD. Compared with the control group, ***p<0.0001; Compared with the model group, #p<0.05, ##p<0.01.

[8] = tested on: lipid ROS levels in Erastin-induced nerve cells; test: Lipid ROS levels (C11-BODIPY probe) in Erastin-induced nerve cells (Example 8); assay type: cell-based, rat; conditions: Erastin 50 μM
Protocol: as §1, §2
After incubation, the C11-BODIPY probe method was used to detect the lipid ROS levels in each group of cells. The results were presented as Mean±SD. Compared with the control group, ***p<0.0001; compared with the model group, #p<0.05, ##p<0.01.

Urokinase [reference compound]
Cerebral blood flow: Percentage decrease after injection of thrombin (%) ([1]; 5000 U/kg group, value before administration): 50.10 ± 7.94% | Cerebral infarction rate (%) ([1]; 5000 U/kg i.v.): 9.72 ± 9.89 % | Cerebral water content (%) ([1]; 5000 U/kg i.v.): 79.78 ± 0.72 % | Cerebral blood flow: Percentage decrease two hours after administration (%) ([1]; 5000 U/kg i.v. once 2 h after modeling): 37.12 ± 4.49 % | Pathological damage score ([1]; 5000 U/kg i.v., HE staining): 1.75 ± 0.86 | Behavioral score ([1]; 5000 U/kg i.v., after 24 h): 1.60 ± 0.70

OCC1OC2OC3C(CO)OC(OC4C(CO)OC(OC5C(CO)OC(OC6C(CO)OC(OC7C(CO)OC(OC8C(CO)OC(OC9C(CO)OC(OC1C(O)C2O)C(O)C9O)C(O)C8O)C(O)C7O)C(O)C6O)C(O)C5O)C(O)C4O)C(O)C3O (stereo not shown) [Compound (10)]
Sensitization risk, in words [2]: low sensitization risk | Relative sensitization risk (compared with positive control group) [2]: 33% | Sensitization risk (%) [2]: 27.8% | Absorbance value (OD value), parallel wells 1-6 [2]: 0.07115 and 0.06947 and 0.06795 and 0.07585 and 0.06445 | Absorbance value (OD value), mean [2]: 0.069 | Preventative effect on thrombosis (%) [3]: 64% | Cardiac erythrocyte staining intensity (pixels, mean ± SE) ([3]; n = 10): 4326 ± 383 pixels | Cardiac erythrocyte staining intensity (pixels, mean ± SE) ([3]; n = 10, listed as compound (10)): 4326 pixels

CC(=O)N[C@@H](CSCC1OC2OC3C(CSC[C@H](NC(C)=O)C(=O)[O-])OC(OC4C(CSC[C@H](NC(C)=O)C(=O)[O-])OC(OC5C(CSC[C@H](NC(C)=O)C(=O)[O-])OC(OC6C(CSC[C@H](NC(C)=O)C(=O)[O-])OC(OC7C(CSC[C@H](NC(C)=O)C(=O)[O-])OC(OC8C(CSC[C@H](NC(C)=O)C(=O)[O-])OC(OC9C(CSC[C@H](NC(C)=O)C(=O)[O-])OC(OC1C(O)C2O)C(O)C9O)C(O)C8O)C(O)C7O)C(O)C6O)C(O)C5O)C(O)C4O)C(O)C3O)C(=O)[O-].[Na+].[Na+].[Na+].[Na+].[Na+].[Na+].[Na+].[Na+] (stereo partly shown) [Compound (2)]
Sensitization risk, in words [2]: no or substantially no sensitization risk | Relative sensitization risk (compared with positive control group) [2]: −4% | Sensitization risk (%) [2]: −3.7% | Absorbance value (OD value), parallel wells 1-6 [2]: 0.05655 and 0.05255 and 0.04865 and 0.04785 and 0.05085 and 0.05405 | Absorbance value (OD value), mean [2]: 0.052 | Preventative effect on thrombosis (%) [3]: 39% | Cardiac erythrocyte staining intensity (pixels, mean ± SE) ([3]; n = 10): 3655 ± 318 pixels | Cardiac erythrocyte staining intensity (pixels, mean ± SE) ([3]; n = 10, listed as compound (2)): 3655 pixels

CC(=O)N[C@H](CSCC1OC2OC3C(CSC[C@@H](NC(C)=O)C(=O)[O-])OC(OC4C(CSC[C@@H](NC(C)=O)C(=O)[O-])OC(OC5C(CSC[C@@H](NC(C)=O)C(=O)[O-])OC(OC6C(CSC[C@@H](NC(C)=O)C(=O)[O-])OC(OC7C(CSC[C@@H](NC(C)=O)C(=O)[O-])OC(OC8C(CSC[C@@H](NC(C)=O)C(=O)[O-])OC(OC1C(O)C2O)C(O)C8O)C(O)C7O)C(O)C6O)C(O)C5O)C(O)C4O)C(O)C3O)C(=O)[O-].[Na+].[Na+].[Na+].[Na+].[Na+].[Na+].[Na+] (stereo partly shown) [Compound (5)]
Cell viability (%) ([4]; 1 μM, 24 h, control = 100, Mean±SD): 58.95 ± 7.21% | Cell viability (%) ([4]; 2.5 μM): 62.63 ± 7.82% | Cell viability (%) ([4]; 5 μM): 67.38 ± 6.73% | Cell viability (%) ([4]; 10 μM): 73.74 ± 7.33^# % | Cell viability (%) ([4]; 20 μM): 79.85 ± 6.34^## % | Cell viability (%) ([4]; 40 μM): 84.2 ± 4.71^## % | Expression of GPX4 mRNA ([5]; 1 μM, control about 1.00, Mean±SD): 0.4777 ± 0.07^ | Expression of GPX4 mRNA ([5]; 2.5 μM): 0.5373 ± 0.08^ | Expression of GPX4 mRNA ([5]; 5 μM): 0.6033 ± 0.06^# | Expression of GPX4 mRNA ([5]; 10 μM): 0.6942 ± 0.01^## | Expression of GPX4 mRNA ([5]; 20 μM): 0.7693 ± 0.1^## | Expression of GPX4 mRNA ([5]; 40 μM): 0.8368 ± 0.07^## | Anti-inflammatory effect (%) ([6]; 27.8 ng/tail intravenous): 38*** % | Fluorescence intensity of perivascular macrophage (pixels, Mean ± SE) ([6]; 27.8 ng/tail intravenous): 113678 ± 4811 pixels | Anti-inflammatory effect (%) ([6]; 83.3 ng/tail intravenous): 36*** % | Fluorescence intensity of perivascular macrophage (pixels, Mean ± SE) ([6]; 83.3 ng/tail intravenous): 118039 ± 9198 pixels | Anti-inflammatory effect (%) ([6]; 250 ng/tail intravenous): 37*** % | Fluorescence intensity of perivascular macrophage (pixels, Mean ± SE) ([6]; 250 ng/tail intravenous): 115627 ± 5934 pixels | Preventative effect on thrombosis (%) [3]: 64% | Cardiac erythrocyte staining intensity (pixels, mean ± SE) ([3]; n = 10): 4340 ± 255 pixels | Cardiac erythrocyte staining intensity (pixels, mean ± SE) ([3]; n = 10, listed as compound (5)): 4340 pixels | Iron content (PGSK probe) ([7]; 1 μM, control = 100, PGSK fluorescence, weaker = more iron): 56.75 ± 9.31^ | Iron content (PGSK probe) ([7]; 2.5 μM): 68.32 ± 6.01^ | Iron content (PGSK probe) ([7]; 5 μM): 72.65 ± 7 | Iron content (PGSK probe) ([7]; 10 μM): 76.52 ± 7.86^# | Iron content (PGSK probe) ([7]; 20 μM): 80.28 ± 6.96^## | Iron content (PGSK probe) ([7]; 40 μM): 87.37 ± 9.57^## | Lipid ROS levels (%) ([8]; 1 μM, control = 100, Mean±SD): 145.89 ± 5.33% | Lipid ROS levels (%) ([8]; 2.5 μM): 141.47 ± 6.53% | Lipid ROS levels (%) ([8]; 5 μM): 133.09 ± 9.69% | Lipid ROS levels (%) ([8]; 10 μM): 128.99 ± 9.84^# % | Lipid ROS levels (%) ([8]; 20 μM): 122.71 ± 8.5^## % | Lipid ROS levels (%) ([8]; 40 μM): 114.82 ± 7.13^## %

From patent US20250064886A1, “CARDIOVASCULAR AND CEREBROVASCULAR DRUG AND USE THEREOF” (HANGZHOU ADAMERCK PHARMLABS INC., priority 2021, published 2025)
